Experiments:
[1] = Radical cation stability by UV-vis absorption spectroscopy; type: physicochemical; details: 0.167 mM radical cation in DCM, oxidation with TBPA-SbCl6, monitored 5 h
From the text: The stability of the radical cation—typically the more reactive form of the electro-active material—can be monitored using UV-vis absorption spectroscopy as these species absorb light in the visible region. This method has proven to be useful for the evaluation of redox shuttle candidates for overcharge protection in LIBs, another application in which the radical cation is involved in electron transfer. The stability of the EPT, MEPT, and MEEPT radical cations were compared in dilute dichloromethane solutions after generation through chemical oxidation with tris(4-bromophenyl)aminium hexachloroantimonate (TBPA-SbCl6).
UV-vis spectra were collected using optical glass cuvettes (Starna) with 1 cm path length with an Agilent 8453 diode array spectrometer. Radical cations were generated in anhydrous DCM by the addition of a 1 mL DCM solution of 0.50 mM TBPA-SbCl6 to a 2 mL DCM solution containing 2.5 mM analyte to produce a final solution containing 0.17 mM radical cation with 1.7 mM analyte, which generates 0.17 mM analyte radical cation with a 9-fold excess of neutral analyte. The cuvettes were capped, and spectra were collected for 5 h.

[2] = Cyclic voltammetry, half-wave oxidation potentials; type: physicochemical; details: for E1/2^+/0 vs. Cp2Fe^+/0 in TBA-PF6 in DCM: 80 mM analyte in 100 mM TBA-PF6/DCM, 100 mV/s scan rate; for E1/2^+/0 vs. Li^+/0, LiPF6 in EC/EMC: 80 mM analyte in 1.2M LiPF6 in EC/EMC (3:7 wt. ratio), 100 mV/s
[3] = Cyclic voltammetry, half-wave oxidation potentials; type: physicochemical; details: for E1/2^+/0 vs. Li^+/0, LiBF4 in PC: 10 mM analyte in 0.5M LiBF4/PC, 100 mV/s; for Oxidation potential higher than EPT, LiPF6/EC/EMC: difference of E1/2^+/0 to EPT in LiPF6/EC/EMC; for Oxidation potential higher than EPT, TBA-PF6/DCM: difference of E1/2^+/0 to EPT in TBA-PF6/DCM
Procedure: The compounds of the present invention provide for components of a redox flow battery system, particularly as part of a catholyte composition. The studies described herein detail their effectiveness for such. The position and reversibility of redox events was determined by cyclic voltammetry (CV), performed in dichloromethane (DCM) containing 0.1 M tetra(n-butyl)ammonium hexafluorophosphate (TBA-PF6) (FIG. 7), in EC/EMC (3:7) containing 1.2 M LiPF6 (FIG. 2), or in propylene carbonate (PC) containing 0.5 M LiBF4 (FIG. 2). Both compounds show reversible first oxidations in all electrolytes. In TBA-PF6/DCM, MEPT (E1/2^+/0=0.30 V vs. Cp2Fe^+/0) and MEEPT (E1/2^+/0=0.29 V vs. Cp2Fe^+/0) oxidize at 0.03 and 0.02 V higher, respectively, than EPT (Table 1). In contrast, though the oxidation potentials of the new compounds were still higher than that of EPT in LiPF6/EC/EMC, a larger difference was observed: MEPT (E1/2^+/0=3.56 V vs. Li^+/0) and MEEPT (E1/2^+/0=3.60 V vs. Li^+/0) oxidized at […] higher, respectively, than EPT (Table 1). The increase in oxidation potential in the lithium-based electrolytes can be attributed to the coordination, through the oligoether side chain, of MEPT to Li^+, a characteristic that is even more pronounced in the case of MEEPT.
(§1) Cyclic voltammetry (CV) experiments were performed using a CH Instruments 600D potentiostat using a three-electrode system in either 100 mM TBAPF6 in anhydrous DCM or in 1.2 M LiPF6 in ethylene carbonate (EC)/ethyl methyl carbonate (EMC) (3:7 wt. ratio) containing […] redox shuttle. Cyclic voltammograms were also recorded in 0.5 M LiBF4 in propylene carbonate (PC) containing 10 mM analyte. Glassy carbon was used as the working electrode, platinum wire as the counter electrode and either freshly anodized Ag/AgCl (in DCM) or lithium metal (in battery electrolyte) as reference electrodes. Oxidation potentials are reported relative to ferrocenium/ferrocene) (Cp2Fe^+/0) in DCM or to Li^+/0 in battery electrolyte. Voltammograms were recorded at a scan rate of 100 mV/s. To determine diffusion coefficients, voltammograms were recorded at variable rates between 5 and 500 mV/s at analyte concentration of 80 mM in 1.2 M LiPF6 in EC/EMC and 10 mM in 0.5 M LiBF4 in PC.

[4] = Solubility / miscibility in battery electrolyte and organic solvents; type: physicochemical; details: for Concentration corresponding to 50 wt. % miscibility: 1.2 M LiPF6 in EC/EMC (3:7 wt. ratio)
From the text: The compounds of the present invention can be prepared by deprotonation of phenothiazine and a subsequent SN2 reaction with a corresponding alkyl halide. This process has produced MEPT and MEEPT in good yields. The compounds were isolated as colorless oils that were miscible with a variety of organic solvents. Both derivatives were miscible up to 50 wt. % in the common battery electrolyte, 1.2 M LiPF6 in ethylene carbonate/ethyl methyl carbonate (EC/EMC, 3:7 wt. ratio) (Table 1), which corresponds to a concentration of ca. 2 M. In contrast, the solubility of EPT is limited to 0.1 M in the same electrolyte.
Next, to evaluate MEPT and MEEPT as cathode candidates for RFBs, the performance of the redox-active species over multiple charge and discharge cycles was analyzed, albeit in a static environment, using galvanostatic cycling in MEPT/Li and MEEPT/Li coin cells. Here we employed the electrolyte 0.5 M LiBF4 in PC in which both MEPT and MEEPT are miscible at as high as 50 wt. % (Table 1). The positive electrode was composed of graphite felt soaked in catholyte consisting of 10 mM active species in 0.5 M LiBF4 in PC, and Li metal was employed as the negative electrode. The electrodes were separated by a lithiated Nafion membrane. The coin cells were cycled between 3.2 and 3.8 V at a rate of C/5 up to 100% SOC so that the first oxidation would be accessed. The theoretical capacities of EPT, MEPT, and MEEPT are 118 mAh/g, 104 mAh/g, and 89 mAh/g, respectively. The charge and discharge plateaus occur in accordance with the potentials determined by CV; they represent the formation and reversible reduction of the respective radical cations. […] The gap between the charge and discharge capacities may result from crossover of the charged species. […] EPT, MEPT, and MEEPT retained ca. 76%, 68% and 67%, respectively, of the original charge capacity after 30 cycles, over which time the coulombic efficiencies for all three catholytes stabilized at ca. 90%.

[5] = Cyclic voltammetry at variable scan rates, diffusion coefficients; type: physicochemical; details: for Diffusion Coefficient, neutral, TBA-PF6 in DCM / Diffusion Coefficient, oxidized, TBA-PF6 in DCM: 10 mM analyte in 100 mM TBA-PF6/DCM, 10 to 200 mV/s; for Diffusion Coefficient, neutral, LiBF4 in PC / Diffusion Coefficient, oxidized, LiBF4 in PC: 10 mM analyte in 0.5M LiBF4/PC; for Diffusion Coefficient, neutral, LiBF4 in PC / Diffusion Coefficient, neutral, LiPF6 in EC/EMC / Diffusion Coefficient, oxidized, LiBF4 in PC / Diffusion Coefficient, oxidized, LiPF6 in EC/EMC: 5 to 500 mV/s; for Diffusion Coefficient, neutral, LiPF6 in EC/EMC / Diffusion Coefficient, oxidized, LiPF6 in EC/EMC: 80 mM analyte in 1.2M LiPF6 in EC/EMC (3:7)
Procedure: MEPT and MEEPT were subjected to CV experiments at variable scan rates in the carbonate-based electrolytes and DCM to determine their diffusion coefficients (FIG. 2, 8). At 80 mM, MEPT and MEEPT diffuse more slowly than EPT. This observation can be explained by the interaction of MEPT and MEEPT with a lithium ion from the electrolyte, which increases the size/molecular weight of the shuttle. Because the additional oxygen in MEEPT enhances the ability for Li^+ chelation, this effect is posited to be responsible for the further reduction in its diffusion rate.
as §1

[6] = carbonate-based electrolytes; cited from earlier work
[7] = cited from earlier work

| Radical cation stability, change of absorption spectra [1] | E1/2^+/0 vs. Cp2Fe^+/0 in TBA-PF6 in DCM [2] [V] | E1/2^+/0 vs. Li^+/0, LiPF6 in EC/EMC [2] [V] | E1/2^+/0 vs. Li^+/0, LiBF4 in PC [3] [V] | Oxidation potential higher than EPT, LiPF6/EC/EMC [3] [V] | Oxidation potential higher than EPT, TBA-PF6/DCM [3] [V] | Concentration corresponding to 50 wt. % miscibility [4] | Diffusion Coefficient, neutral, TBA-PF6 in DCM [5] | Diffusion Coefficient, neutral, LiBF4 in PC [5] | Diffusion Coefficient, neutral, LiPF6 in EC/EMC [5] | Diffusion Coefficient, oxidized, TBA-PF6 in DCM [5] | Diffusion Coefficient, oxidized, LiBF4 in PC [5] | Diffusion Coefficient, oxidized, LiPF6 in EC/EMC [5] | Solubility 0.5M LiBF4 in PC ([4]; 0.5 M LiBF4 in PC) [M] | Structure (SMILES) | Oxidation potential vs. Li^+/0 [6] | Solubility in organic solvents ([7]; organic solvents) | Solubility in organic solvents and electrolytes ([7]; organic solvents and electrolytes) [mM] |
| --- | --- | --- | --- | --- | --- | --- | --- | --- | --- | --- | --- | --- | --- | --- | --- | --- | --- |
| remain almost unchanged | 0.29 | 3.60 | 3.64 | 0.09 | 0.02 | ca. 2 M | 2.5 ×10^−6 cm^2s^−1 | 0.7, 0.7 ×10^−6 cm^2s^−1 | 0.2 ×10^−6 cm^2s^−1 | 1.6 ×10^−6 cm^2s^−1 | 0.7, 0.7 ×10^−6 cm^2s^−1 | 0.1 ×10^−6 cm^2s^−1 | – | COCCOCCN1c2ccccc2Sc2ccccc21 [MEEPT, N-[2-(2-methoxyethoxy)ethyl]phenothiazine] | – | – | – |
| remain almost unchanged | 0.27 | 3.51 | 3.60 | – | – | – | 3.9 ×10^−6 cm^2s^−1 | 1.5 ×10^−6 cm^2s^−1 | 1.0 ×10^−6 cm^2s^−1 | 2.4 ×10^−6 cm^2s^−1 | 1.4 ×10^−6 cm^2s^−1 | 0.7 ×10^−6 cm^2s^−1 | ≤ 0.1 | CCN1c2ccccc2Sc2ccccc21 [EPT, N-ethylphenothiazine, reference compound] | ca. 3.5 V | ca. 0.1 M | – |
| – | – | – | – | – | – | – | – | – | – | – | – | – | – | CCN1c2ccc(C(F)(F)F)cc2Sc2cc(C(F)(F)F)ccc21 [BCF3EPT, 3,7-bis(trifluoromethyl)-N-ethylphenothiazine] | – | – | 1500 to 2000 |
| remain almost unchanged | 0.30 | 3.56 | 3.64 | 0.06 | 0.03 | ca. 2 M | 3.7 ×10^−6 cm^2s^−1 | 1.1 ×10^−6 cm^2s^−1 | 0.4 ×10^−6 cm^2s^−1 | 2.6 ×10^−6 cm^2s^−1 | 1.0 ×10^−6 cm^2s^−1 | 0.2 ×10^−6 cm^2s^−1 | – | COCCN1c2ccccc2Sc2ccccc21 [MEPT, N-(2-methoxyethyl)phenothiazine] | – | – | – |

Source: patent US10103402B2, “Liquid phenothiazine catholytes for non-aqueous redox flow batteries” (University of Kentucky Research Foundation, priority 2015, dated 2018)
